Test results published in patent EP4692073A1, “CYCLIC AMINE DERIVATIVE, AND COMPOSITION AND USE THEREOF” (Shanghai Jingxin Biomedical Co., Ltd., priority 2023, dated 2024).

Assays:
TA98 = test: Salmonella typhimurium reverse mutation test, TA98; format: cell-based; design: key: + indicates a positive mutagenic result; - indicates a negative mutagenic result
Experimental: (§1) The revived strains or a single colony from the master plate were inoculated into the broth, and cultured in a thermostat gas bath vibrator at 100 to 120 rpm and 37±1°C for 10 to 16 hours, marked and stored for later use. The bottom agar medium (containing an appropriate amount of agar, Vogel-Bonner buffer, 20% glucose solution and 20% magnesium sulfate solution) was poured into a six-well plate, approximately 20mL-25mL into each well, and allowed to cool and solidify naturally, marked each well and stored for later use.
(§2) Three wells were set up in each group for parallel experiments. The top agar medium was sterilized under high pressure and kept warm at about […]. In each test tube, 0.1mL of negative control (DMSO) or positive control or test sample, 0.1mL of bacterial solution suspension, 0.5mL of phosphate buffer (0.2M PBS) (-S9) or 0.5mL of S9 mixed solution (+S9) and 2.5mL top culture medium were added, after vortex mixing, and then quickly and evenly spread on the culture dish which was already spreaded with the bottom agar medium. After natural cooling and solidification, the culture dish was inverted and placed in a 37°C incubator for 48 to 72 hours. After culturing for 48 to 72 hours, the culture dish was taked out, and the number of revertant colonies in each well was counted, the growth background was observed under a microscope to determine whether there was antibacterial or bactericidal activity, and the experimental results were recorded.

TA1535 = test: Salmonella typhimurium reverse mutation test, TA1535; format: cell-based; design: key: + indicates a positive mutagenic result; - indicates a negative mutagenic result
Experimental: as §1, §2

TA102 = test: Salmonella typhimurium reverse mutation test, TA102; format: cell-based; design: key: + indicates a positive mutagenic result; - indicates a negative mutagenic result
Experimental: as §1, §2

TA100 = test: Salmonella typhimurium reverse mutation test, TA100; format: cell-based; design: key: + indicates a positive mutagenic result; - indicates a negative mutagenic result
Experimental: as §1, §2

Lp(a) = test: In vivo Lp(a) inhibition in cynomolgus monkeys; settings: 3 mg/kg oral gavage once daily for 5 days, serum Lp(a) 8 hours after administration on Day 5
Experimental: • 1. Experimental purpose: The purpose of this test is to test the inhibitory effect of the compounds of the present invention on Lp(a) in cynomolgus monkeys • 2. Experimental instruments and reagents: Fully automatic biochemical analyzer (Hitachi 7600 model), • 3. Experimental methods: The cynomolgus monkeys were housed with a standard light cycle (12 hours light/12 hours dark), at a room temperature of 18-26°C and a relative humidity of 40-70%, with drinking water provided continuously for 24 hours, and feed was provided to the animals twice daily, in the morning (about 10:30) and in the afternoon (about 15:00). Five days prior to the study, the cynomolgus monkeys were randomly assigned to groups (n=3/group) based on their body weight and baseline serum Lp(a) concentration for the study. The administration volume was calculated according to the body weight of the animals on the first day of administration, and the administration volume was 5 mL/kg, administered once daily by oral gavage for 5 consecutive days, and the dosage was 3 mg/kg, and the solvent was 1% HEC and 0.25% Tween 80.
The adaptation period (after fasting overnight), before administration on Day 1, and 8 hours after administration on Day 5. […] The serum Lp(a) level was detected using a fully automatic biochemical analyzer. […]

TA1537 = test: Salmonella typhimurium reverse mutation test, TA1537; format: cell-based; design: key: + indicates a positive mutagenic result; - indicates a negative mutagenic result
Experimental: as §1, §2

[1] = TA98, no S9 mixture, 62µg/ dish
[2] = TA98, no S9 mixture, 185µg/ dish
[3] = TA98, no S9 mixture, 556µg/ dish
[4] = TA98, no S9 mixture, 1667µg/ dish
[5] = TA98, no S9 mixture, 5000µg/ dish
[6] = TA98, with S9 mixture, 62µg/ dish
[7] = TA98, with S9 mixture, 185µg/ dish
[8] = TA98, with S9 mixture, 556µg/ dish
[9] = TA98, with S9 mixture, 1667µg/ dish
[10] = TA98, with S9 mixture, 5000µg/ dish
[11] = TA1535, no S9 mixture, 62µg/ dish
[12] = TA1535, no S9 mixture, 185µg/ dish
[13] = TA1535, no S9 mixture, 556µg/ dish
[14] = TA1535, no S9 mixture, 1667µg/ dish
[15] = TA1535, no S9 mixture, 5000µg/ dish
[16] = TA1535, with S9 mixture, 62µg/ dish
[17] = TA1535, with S9 mixture, 185µg/ dish
[18] = TA1535, with S9 mixture, 556µg/ dish
[19] = TA1535, with S9 mixture, 1667µg/ dish
[20] = TA1535, with S9 mixture, 5000µg/ dish
[21] = TA102, no S9 mixture, 62µg/ dish
[22] = TA102, no S9 mixture, 185µg/ dish
[23] = TA102, no S9 mixture, 556µg/ dish
[24] = TA102, no S9 mixture, 1667µg/ dish
[25] = TA102, no S9 mixture, 5000µg/ dish
[26] = TA102, with S9 mixture, 62µg/ dish
[27] = TA102, with S9 mixture, 185µg/ dish
[28] = TA102, with S9 mixture, 556µg/ dish
[29] = TA102, with S9 mixture, 1667µg/ dish
[30] = TA102, with S9 mixture, 5000µg/ dish
[31] = TA100, no S9 mixture, 62µg/ dish
[32] = TA100, no S9 mixture, 185µg/ dish
[33] = TA100, no S9 mixture, 556µg/ dish
[34] = TA100, no S9 mixture, 1667µg/ dish
[35] = TA100, no S9 mixture, 5000µg/ dish
[36] = TA100, with S9 mixture, 62µg/ dish
[37] = TA100, with S9 mixture, 185µg/ dish
[38] = TA100, with S9 mixture, 556µg/ dish
[39] = TA100, with S9 mixture, 1667µg/ dish
[40] = TA100, with S9 mixture, 5000µg/ dish
[41] = TA1537, no S9 mixture, 62µg/ dish
[42] = TA1537, no S9 mixture, 185µg/ dish
[43] = TA1537, no S9 mixture, 556µg/ dish
[44] = TA1537, no S9 mixture, 1667µg/ dish
[45] = TA1537, no S9 mixture, 5000µg/ dish
[46] = TA1537, with S9 mixture, 62µg/ dish
[47] = TA1537, with S9 mixture, 185µg/ dish
[48] = TA1537, with S9 mixture, 556µg/ dish
[49] = TA1537, with S9 mixture, 1667µg/ dish
[50] = TA1537, with S9 mixture, 5000µg/ dish

With `O=C(O)[C@@H](Cc1cccc(CN(Cc2cccc(C[C@H](C(=O)O)[C@H]3CCNC3)c2)Cc2cccc(C[C@H](C(=O)O)[C@H]3CCNC3)c2)c1)[C@H]1CCNC1` [Comparative Example 1] the mutagenicity (TA98; [1]) was “-”, the mutagenicity (TA98; [2]) was “+” and the mutagenicity (TA98; [3]) was “+”. The mutagenicity (TA98; [4]) was “+”, the mutagenicity (TA98; [5]) was “+” and the mutagenicity (TA98; [6]) was “-”. The mutagenicity (TA98; [7]) was “-”, the mutagenicity (TA98; [8]) was “+” and the mutagenicity (TA98; [9]) was “+”. For the same compound, the mutagenicity (TA98; [10]) was “+”, the mutagenicity (TA1535; [11]) was “-” and the mutagenicity (TA1535; [12]) was “-”. The mutagenicity (TA1535; [13]) was “-”, the mutagenicity (TA1535; [14]) was “-” and the mutagenicity (TA1535; [15]) was “-”. For the same compound, the mutagenicity (TA1535; [16]) was “-”, the mutagenicity (TA1535; [17]) was “-” and the mutagenicity (TA1535; [18]) was “-”. For the same compound, the mutagenicity (TA1535; [19]) was “-”, the mutagenicity (TA1535; [20]) was “-” and the mutagenicity (TA102; [21]) was “-”. For the same compound, the mutagenicity (TA102; [22]) was “-”, the mutagenicity (TA102; [23]) was “-” and the mutagenicity (TA102; [24]) was “-”. The mutagenicity (TA102; [25]) was “-”, the mutagenicity (TA102; [26]) was “-” and the mutagenicity (TA102; [27]) was “-”. The mutagenicity (TA102; [28]) was “-”, the mutagenicity (TA102; [29]) was “-” and the mutagenicity (TA102; [30]) was “-”. For the same compound, the mutagenicity (TA100; [31]) was “-”, the mutagenicity (TA100; [32]) was “-” and the mutagenicity (TA100; [33]) was “-”. The mutagenicity (TA100; [34]) was “-”, the mutagenicity (TA100; [35]) was “-” and the mutagenicity (TA100; [36]) was “-”. The mutagenicity (TA100; [37]) was “-”, the mutagenicity (TA100; [38]) was “-” and the mutagenicity (TA100; [39]) was “-”. The mutagenicity (TA100; [40]) was “-”, the “Lp(a) inhibition rate” value (Lp(a)) was 32.87±17.30% and the mutagenicity (TA1537; [41]) was “-”. For the same compound, the mutagenicity (TA1537; [42]) was “-”, the mutagenicity (TA1537; [43]) was “-” and the mutagenicity (TA1537; [44]) was “-”. For the same compound, the mutagenicity (TA1537; [45]) was “-”, the mutagenicity (TA1537; [46]) was “-” and the mutagenicity (TA1537; [47]) was “-”. The mutagenicity (TA1537; [48]) was “-”, the mutagenicity (TA1537; [49]) was “-” and the mutagenicity (TA1537; [50]) was “-”.
For `O=C(O)[C@@H](Cc1cccc(CN(Cc2cccc(C[C@H](C(=O)O)[C@H]3CCNC3)c2)C(=O)c2cccc(C[C@H](C(=O)O)[C@H]3CCNC3)c2)c1)[C@H]1CCNC1` [Example 5], the mutagenicity (TA98; [1]) was “-”, the mutagenicity (TA98; [2]) was “-” and the mutagenicity (TA98; [3]) was “-”. The mutagenicity (TA98; [4]) was “-”, the mutagenicity (TA98; [5]) was “-” and the mutagenicity (TA98; [6]) was “-”. The mutagenicity (TA98; [7]) was “-”, the mutagenicity (TA98; [8]) was “-” and the mutagenicity (TA98; [9]) was “-”. For the same compound, the mutagenicity (TA98; [10]) was “-”, the mutagenicity (TA1535; [11]) was “-” and the mutagenicity (TA1535; [12]) was “-”. The mutagenicity (TA1535; [13]) was “-”, the mutagenicity (TA1535; [14]) was “-” and the mutagenicity (TA1535; [15]) was “-”. The mutagenicity (TA1535; [16]) was “-”, the mutagenicity (TA1535; [17]) was “-” and the mutagenicity (TA1535; [18]) was “-”. For the same compound, the mutagenicity (TA1535; [19]) was “-”, the mutagenicity (TA1535; [20]) was “-” and the mutagenicity (TA102; [21]) was “-”. For the same compound, the mutagenicity (TA102; [22]) was “-”, the mutagenicity (TA102; [23]) was “-” and the mutagenicity (TA102; [24]) was “-”. For the same compound, the mutagenicity (TA102; [25]) was “-”, the mutagenicity (TA102; [26]) was “-” and the mutagenicity (TA102; [27]) was “-”. The mutagenicity (TA102; [28]) was “-”, the mutagenicity (TA102; [29]) was “-” and the mutagenicity (TA102; [30]) was “-”. The mutagenicity (TA100; [31]) was “-”, the mutagenicity (TA100; [32]) was “-” and the mutagenicity (TA100; [33]) was “-”. For the same compound, the mutagenicity (TA100; [34]) was “-”, the mutagenicity (TA100; [35]) was “-” and the mutagenicity (TA100; [36]) was “-”. The mutagenicity (TA100; [37]) was “-”, the mutagenicity (TA100; [38]) was “-” and the mutagenicity (TA100; [39]) was “-”. The mutagenicity (TA100; [40]) was “-”, the “Lp(a) inhibition rate” value (Lp(a)) was 50.23±20.41% and the mutagenicity (TA1537; [41]) was “-”. For the same compound, the mutagenicity (TA1537; [42]) was “-”, the mutagenicity (TA1537; [43]) was “-” and the mutagenicity (TA1537; [44]) was “-”. The mutagenicity (TA1537; [45]) was “-”, the mutagenicity (TA1537; [46]) was “-” and the mutagenicity (TA1537; [47]) was “-”. The mutagenicity (TA1537; [48]) was “-”, the mutagenicity (TA1537; [49]) was “-” and the mutagenicity (TA1537; [50]) was “-”.
